This is an account of results in ChEMBL document CHEMBL1201862, “PubChem BioAssay data set” (2004).

Among the test systems are NCI/ADR-RES; UACC-62; HT-29; BT-549; EKVX; IGROV-1; MDA-MB-435; MOLT-4; SK-MEL-28; LOX IMVI; HCT-15; SNB-19; M14; KM12; HOP-92; SW-620; U-251; HCT-116; TK-10; UO-31.
Common to all, as to assay: inhibition of tumour cell growth, NCI panel, 48 h

Molecules are shown by their SMILES.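 These data come from cells grown in 96-well plates and exposed to compound for 48 hours at five concentrations. GI50 is the concentration that inhibits growth by half.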 The source made the active and inactive calls. No stated cut-off is given here; in the data, active = GI50 up to about 1.1 µM and inactive = higher.

For the molecule `CN1CCC2(CC1)SC[C@H]1C(=O)N(c3ccc(Cl)cc3)C(=O)N12`, the GI50 with NCI/ADR-RES, in the experiment on UACC-62, in the experiment with HT-29, in the experiment with BT-549, in the experiment with EKVX and in the experiment with IGROV-1 was > 100 µM (inactive) throughout. In addition, the GI50 is 43.7 µM (inactive) with MDA-MB-435; > 100 µM (inactive) in the experiment with MOLT-4; > 100 µM (inactive) in the experiment on SK-MEL-28; > 100 µM (inactive) in the experiment on LOX IMVI; 50.1 µM with HCT-15; > 100 µM (inactive) in the experiment with SNB-19. For the same molecule, the GI50 in the experiment with M14, in the experiment with KM12, in the experiment with HOP-92, in the experiment with SW-620, in the experiment on U-251 and in the experiment with HCT-116 was > 100 µM (inactive) each time. Besides, the GI50 in the experiment on TK-10 and with UO-31 was > 100 µM (inactive) in each case.
As for `Cn1c2ccccc2c2c3c(c4c5ccccc5n(C)c4c21)C(=O)c1ccccc1C3=O`, the GI50 is 61.1 µM (inactive) in the experiment with NCI/ADR-RES; 25.9 µM (inactive) with UACC-62; > 100 µM (inactive) in the experiment on HT-29; 20.4 µM (inactive) with BT-549; 44.9 µM (inactive) in the experiment on EKVX; 31 µM (inactive) with IGROV-1. The GI50 in the experiment with MDA-MB-435 is 51.3 µM (inactive); in the experiment on MOLT-4, > 100 µM (inactive); in the experiment on SK-MEL-28, > 100 µM (inactive); with LOX IMVI, 37.3 µM (inactive); in the experiment on HCT-15, greater than 100 µM; in the experiment with SNB-19 it was 22.8 µM (inactive). In addition, the GI50 with M14 was 76.9 µM (inactive); in the experiment with KM12, 86.9 µM (inactive); in the experiment on HOP-92 it was 53.3 µM (inactive); in the experiment on SW-620 it was 79.1 µM (inactive); in the experiment with U-251, 17.9 µM (inactive); in the experiment with HCT-116, 30.1 µM (inactive). The GI50 in the experiment with TK-10 was 24.3 µM (inactive); in the experiment on UO-31 it was 67.3 µM (inactive).
For `C=C(CBr)CCCOCc1ccccc1`, the GI50 was 20.2 µM (inactive) in the experiment on NCI/ADR-RES; 18.7 µM (inactive) in the experiment on UACC-62; 21.2 µM (inactive) in the experiment with HT-29; 15 µM (inactive) in the experiment on BT-549; 22.9 µM (inactive) in the experiment with EKVX; 21.4 µM (inactive) in the experiment with IGROV-1. Moreover, the GI50 was 28.4 µM (inactive) in the experiment on MDA-MB-435; 30.8 µM (inactive) in the experiment on MOLT-4; 40.9 µM (inactive) in the experiment with SK-MEL-28; 30.6 µM (inactive) in the experiment with LOX IMVI; 22 µM in the experiment on HCT-15; 15.6 µM (inactive) in the experiment on SNB-19. Besides, the GI50 was 16.7 µM (inactive) in the experiment with M14; 18.9 µM (inactive) with KM12; 21.6 µM (inactive) with HOP-92; 32.7 µM (inactive) in the experiment with SW-620; 34.7 µM (inactive) in the experiment on U-251; 41.6 µM (inactive) with HCT-116. For the same molecule, the GI50 is 16.7 µM (inactive) in the experiment on TK-10 and 13.7 µM (inactive) with UO-31.
For the molecule `COc1ccc2c(c1)c(=Cc1ccc(N(C)C)cc1)c1cc(-c3ccccc3)[n+](C)n12`, the GI50 with NCI/ADR-RES was 3.66 µM (inactive); with UACC-62, 0.698 µM (active); with HT-29, 0.171 µM (active); in the experiment on BT-549, 0.0182 µM (active); in the experiment on EKVX, 0.255 µM (active); with IGROV-1, 0.144 µM (active). The GI50 in the experiment with MDA-MB-435 is 0.369 µM (active); in the experiment with MOLT-4 it was 0.305 µM (active); in the experiment with SK-MEL-28 it was 0.634 µM (active); in the experiment on LOX IMVI it was 0.374 µM (active); with HCT-15 it was 1.65 µM; with SNB-19, 0.282 µM (active). For the same molecule, the GI50 is 0.312 µM (active) in the experiment with M14; 0.448 µM (active) in the experiment on KM12; 0.187 µM (active) with HOP-92; 0.377 µM (active) in the experiment with SW-620; 0.301 µM (active) in the experiment on U-251; 0.314 µM (active) with HCT-116. Also, the GI50 is 0.461 µM (active) with TK-10 and 0.596 µM (active) in the experiment on UO-31.
With `NS(=O)(=O)c1ccc(NNc2c3ccccc3nc3c(C(=O)Nc4ccc(S(N)(=O)=O)cc4)cccc23)cc1`, the GI50 in the experiment on NCI/ADR-RES was > 100 µM (inactive); with UACC-62, 22.2 µM (inactive); in the experiment on HT-29 it was 26.9 µM (inactive); with BT-549 it was 5.85 µM (inactive); in the experiment on EKVX, 42.8 µM (inactive); in the experiment with IGROV-1 it was 19.3 µM (inactive). Besides, the GI50 in the experiment on MDA-MB-435 is 49.3 µM (inactive); in the experiment with MOLT-4, 7.85 µM (inactive); with SK-MEL-28, 48.6 µM (inactive); in the experiment on LOX IMVI, 11.5 µM (inactive); with HCT-15 it was greater than 100 µM; in the experiment with SNB-19, 33.5 µM (inactive). For the same molecule, the GI50 in the experiment on M14 is 55.3 µM (inactive); with KM12, 27.9 µM (inactive); with HOP-92 it was 5.07 µM (inactive); with SW-620, 15.3 µM (inactive); in the experiment on U-251 it was 14.5 µM (inactive); in the experiment with HCT-116 it was 22.1 µM (inactive). Further, the GI50 in the experiment on TK-10 was > 100 µM (inactive); in the experiment with UO-31, 63 µM (inactive).
In the case of `Oc1cc(O)c2ccc(-c3ccc(O)c(O)c3)[o+]c2c1`, the GI50 in the experiment with NCI/ADR-RES is > 100 µM (inactive); with UACC-62 it was > 100 µM (inactive); with HT-29 it was > 100 µM (inactive); in the experiment with BT-549 it was 39.9 µM (inactive); in the experiment on EKVX it was > 100 µM (inactive); with IGROV-1, > 100 µM (inactive). For the same molecule, the GI50 is > 100 µM (inactive) with MDA-MB-435; > 100 µM (inactive) with MOLT-4; > 100 µM (inactive) with SK-MEL-28; > 100 µM (inactive) in the experiment on LOX IMVI; greater than 100 µM in the experiment with HCT-15; > 100 µM (inactive) in the experiment with SNB-19. In addition, the GI50 with M14, in the experiment on KM12, in the experiment with HOP-92, with SW-620, with U-251 and with HCT-116 was > 100 µM (inactive) throughout. Besides, the GI50 with TK-10 and in the experiment with UO-31 was > 100 µM (inactive) in each case.
Take `CN(CCCN=C=S)CCCN1c2ccccc2CCc2ccccc21`: the GI50 in the experiment on NCI/ADR-RES is 1.29 µM (inactive); in the experiment on UACC-62, 1.79 µM (inactive); in the experiment with HT-29, 1.51 µM (inactive); in the experiment with BT-549, 2.83 µM (inactive); in the experiment on EKVX, 1.88 µM (inactive); with IGROV-1, 1.79 µM (inactive). For the same molecule, the GI50 in the experiment on MDA-MB-435 is 1.79 µM (inactive); in the experiment on MOLT-4, 0.611 µM (active); with SK-MEL-28, 2.06 µM (inactive); with LOX IMVI it was 1.88 µM (inactive); in the experiment with HCT-15, 1.49 µM; in the experiment on SNB-19 it was 1.72 µM (inactive). Moreover, the GI50 in the experiment on M14 is 1.71 µM (inactive); with KM12, 1.73 µM (inactive); in the experiment on HOP-92, 2.07 µM (inactive); with SW-620, 2.23 µM (inactive); in the experiment with U-251, 1.81 µM (inactive); in the experiment on HCT-116, 1.71 µM (inactive). Moreover, the GI50 in the experiment on TK-10 is 1.82 µM (inactive); in the experiment with UO-31, 1.62 µM (inactive).
For `Cc1ccc(NC(=O)c2cc3ccccc3c(/N=N/c3cc(S(=O)(=O)O)ccc3O)c2O)c(C)c1`, the GI50 in the experiment on NCI/ADR-RES was 25.6 µM (inactive); with UACC-62, 15.5 µM (inactive); with HT-29, 12.4 µM (inactive); in the experiment with BT-549 it was 17.8 µM (inactive); in the experiment with EKVX, 19.6 µM (inactive); with IGROV-1, 16.3 µM (inactive). Besides, the GI50 in the experiment with MDA-MB-435 is 19.7 µM (inactive); in the experiment with MOLT-4, 17.1 µM (inactive); with SK-MEL-28, 18.7 µM (inactive); with LOX IMVI it was 32.4 µM (inactive); in the experiment on HCT-15, 9.33 µM; in the experiment on SNB-19, 15.8 µM (inactive). The GI50 is 7.43 µM (inactive) with M14; 16.1 µM (inactive) in the experiment with KM12; 21.2 µM (inactive) in the experiment with HOP-92; 10.9 µM (inactive) in the experiment on SW-620; 4.33 µM (inactive) in the experiment with U-251; 29.9 µM (inactive) in the experiment with HCT-116. The GI50 is 25.1 µM (inactive) with TK-10 and 4.44 µM (inactive) in the experiment with UO-31.
